ChEMBL document CHEMBL4507292 (2021)

How the values were obtained:
[1] = target: T1, Alpha-1D adrenergic receptor (Homo sapiens) (UniProt P25100); experiment: Inhibition of Adrenergic alpha1D at 10 µM in the Eurofins-Panlabs radioligand binding assay (Eurofins_assay_203400); settings: Compound concentration 10.0 uM
T1 sequence (whole entry): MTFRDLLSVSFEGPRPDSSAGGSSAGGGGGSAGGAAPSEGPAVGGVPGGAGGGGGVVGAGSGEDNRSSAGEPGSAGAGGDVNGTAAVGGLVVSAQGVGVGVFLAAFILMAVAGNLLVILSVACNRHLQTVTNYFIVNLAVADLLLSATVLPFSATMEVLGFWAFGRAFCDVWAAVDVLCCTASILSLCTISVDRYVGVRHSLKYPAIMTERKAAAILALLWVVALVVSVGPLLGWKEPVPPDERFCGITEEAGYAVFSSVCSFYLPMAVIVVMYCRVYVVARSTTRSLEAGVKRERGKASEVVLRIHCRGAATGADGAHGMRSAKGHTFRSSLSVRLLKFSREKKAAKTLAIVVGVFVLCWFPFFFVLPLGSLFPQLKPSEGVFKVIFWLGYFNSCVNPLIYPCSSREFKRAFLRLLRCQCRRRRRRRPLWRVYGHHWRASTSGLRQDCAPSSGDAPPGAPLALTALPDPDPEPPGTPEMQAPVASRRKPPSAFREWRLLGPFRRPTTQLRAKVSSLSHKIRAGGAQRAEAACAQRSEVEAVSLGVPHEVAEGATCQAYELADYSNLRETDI

[2] = target: GABA-A receptor; anion channel (Rattus norvegicus) (UniProt O09028+P15431+P18506+P18508+P19969+P20236+P23574+P23576+P28471+P28473+P30191+P62813+P63079+P63138+Q91ZM7+Q9ES14); experiment: Inhibition of GABAA, Muscimol, Central at 10 µM in the Eurofins-Panlabs radioligand binding assay (Eurofins_assay_226500); type: protein-complex assay; settings: Compound concentration 10.0 uM
[3] = target: Glucocorticoid receptor (Homo sapiens) (UniProt P04150); experiment: Glucocorticoid Eurofins-Panlabs radioligand binding assay; settings: Compound concentration 10.0 uM
Glucocorticoid receptor (Homo sapiens), sequence (P04150 whole entry): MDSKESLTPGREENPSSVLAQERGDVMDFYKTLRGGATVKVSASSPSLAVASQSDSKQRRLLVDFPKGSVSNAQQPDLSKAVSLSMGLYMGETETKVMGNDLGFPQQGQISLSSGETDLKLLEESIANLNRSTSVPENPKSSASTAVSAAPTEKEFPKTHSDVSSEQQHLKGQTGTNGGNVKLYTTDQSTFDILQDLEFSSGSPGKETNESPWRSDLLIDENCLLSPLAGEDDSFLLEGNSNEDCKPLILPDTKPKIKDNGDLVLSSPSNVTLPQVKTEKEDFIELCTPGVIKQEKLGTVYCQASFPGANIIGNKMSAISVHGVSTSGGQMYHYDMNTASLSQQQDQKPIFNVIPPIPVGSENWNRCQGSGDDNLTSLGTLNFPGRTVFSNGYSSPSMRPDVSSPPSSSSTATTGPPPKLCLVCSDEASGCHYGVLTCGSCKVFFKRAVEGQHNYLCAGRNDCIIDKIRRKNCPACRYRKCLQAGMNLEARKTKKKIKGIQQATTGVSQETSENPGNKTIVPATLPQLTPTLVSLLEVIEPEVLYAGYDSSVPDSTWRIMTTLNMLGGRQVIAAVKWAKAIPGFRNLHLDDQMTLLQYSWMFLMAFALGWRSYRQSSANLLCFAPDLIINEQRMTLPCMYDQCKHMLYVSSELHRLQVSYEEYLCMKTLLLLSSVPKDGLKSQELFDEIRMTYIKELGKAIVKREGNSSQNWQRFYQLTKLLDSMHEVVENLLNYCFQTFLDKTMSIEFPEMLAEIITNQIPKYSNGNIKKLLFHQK

[4] = target: Glutamate receptor ionotropic, kainate (Rattus norvegicus) (UniProt P22756+Q01812+P42260+P42264+Q63273); experiment: Inhibition of Glutamate, Kainate at 10 µM in the Eurofins-Panlabs radioligand binding assay (Eurofins_assay_232700); settings: Compound concentration 10.0 uM
[5] = target: hERG (KCNH2) potassium channel (Homo sapiens, UniProt Q12809); experiment: Inhibition of Potassium Channel hERG at 10 µM in the Eurofins-Panlabs radioligand binding assay (Eurofins_assay_265900); design: ligand concentration 1.5 nM, non-specific ligand with concentration Astemizole, incubation time 60 min, incubation temperature 25 °C; settings: HEK-293 cells expressing human recombinant hERG, probe [3H] Astemizole, 1.5 nM, compound concentration 10 uM
hERG (KCNH2) potassium channel, sequence (Q12809 whole entry): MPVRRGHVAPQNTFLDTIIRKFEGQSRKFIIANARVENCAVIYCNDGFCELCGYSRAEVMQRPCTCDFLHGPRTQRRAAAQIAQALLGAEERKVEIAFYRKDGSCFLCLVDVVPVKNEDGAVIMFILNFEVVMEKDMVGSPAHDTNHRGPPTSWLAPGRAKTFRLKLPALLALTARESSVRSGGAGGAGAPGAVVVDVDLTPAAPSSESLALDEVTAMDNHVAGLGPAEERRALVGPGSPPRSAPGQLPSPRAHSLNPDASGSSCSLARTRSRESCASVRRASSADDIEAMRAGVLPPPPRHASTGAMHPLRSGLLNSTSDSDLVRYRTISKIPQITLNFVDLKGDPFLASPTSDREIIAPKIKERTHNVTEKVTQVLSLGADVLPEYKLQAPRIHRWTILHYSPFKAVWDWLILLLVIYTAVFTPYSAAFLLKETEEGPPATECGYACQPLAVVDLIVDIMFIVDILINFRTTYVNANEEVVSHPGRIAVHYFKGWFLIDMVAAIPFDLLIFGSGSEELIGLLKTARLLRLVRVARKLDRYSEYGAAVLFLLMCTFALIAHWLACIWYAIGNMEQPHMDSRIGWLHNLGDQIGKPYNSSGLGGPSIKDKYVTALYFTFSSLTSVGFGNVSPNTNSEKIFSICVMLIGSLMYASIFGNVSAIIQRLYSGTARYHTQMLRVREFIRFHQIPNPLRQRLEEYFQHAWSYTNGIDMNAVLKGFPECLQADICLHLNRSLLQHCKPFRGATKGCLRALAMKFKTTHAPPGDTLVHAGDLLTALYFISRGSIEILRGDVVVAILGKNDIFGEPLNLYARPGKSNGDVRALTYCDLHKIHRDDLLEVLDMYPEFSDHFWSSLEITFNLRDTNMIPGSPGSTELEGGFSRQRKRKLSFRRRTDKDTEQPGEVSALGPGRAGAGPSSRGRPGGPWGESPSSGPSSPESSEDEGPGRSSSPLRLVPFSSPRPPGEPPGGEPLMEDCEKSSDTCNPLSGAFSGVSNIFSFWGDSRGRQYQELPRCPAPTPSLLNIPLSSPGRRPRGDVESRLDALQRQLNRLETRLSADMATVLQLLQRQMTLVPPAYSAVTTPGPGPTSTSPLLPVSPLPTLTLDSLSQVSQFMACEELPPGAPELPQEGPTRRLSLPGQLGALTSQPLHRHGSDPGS

[6] = target: T2, Prostaglandin G/H synthase 2 (Homo sapiens) (UniProt P35354); experiment: (§1) Inhibition of Cyclooxygenase COX-2 at compound concentration of 10.0 uM in the Eurofins-Panlabs enzyme assay (Eurofins_assay_118010); design: substrate with concentration 0.3 uM Arachidonic acid, incubation time 15 min, incubation temperature 37 C
T2 sequence (whole entry): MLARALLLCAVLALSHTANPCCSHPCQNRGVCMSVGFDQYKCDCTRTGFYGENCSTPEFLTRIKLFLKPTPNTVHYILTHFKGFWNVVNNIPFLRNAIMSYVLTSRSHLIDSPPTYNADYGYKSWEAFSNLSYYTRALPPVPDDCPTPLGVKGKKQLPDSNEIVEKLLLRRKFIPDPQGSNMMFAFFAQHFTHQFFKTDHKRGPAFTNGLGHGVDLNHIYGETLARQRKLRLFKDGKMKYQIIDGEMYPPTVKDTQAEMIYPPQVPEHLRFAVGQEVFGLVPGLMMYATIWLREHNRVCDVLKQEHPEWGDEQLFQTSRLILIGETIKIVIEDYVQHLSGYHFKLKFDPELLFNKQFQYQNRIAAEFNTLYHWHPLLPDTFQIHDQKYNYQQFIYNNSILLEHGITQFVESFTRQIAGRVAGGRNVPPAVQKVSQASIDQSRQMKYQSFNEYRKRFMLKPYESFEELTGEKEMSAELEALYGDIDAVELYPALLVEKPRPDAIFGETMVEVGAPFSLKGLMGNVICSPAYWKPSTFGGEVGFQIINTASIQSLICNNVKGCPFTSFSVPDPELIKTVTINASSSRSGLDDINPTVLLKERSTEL

[7] = target: Prostaglandin G/H synthase 2 (Homo sapiens, UniProt P35354); experiment: as §1; design: substrate with concentration 0.3 uM Arachidonic acid, incubation time 15 min, incubation temperature 37 C
[8] = (§2) Inhibition of Phosphodiesterase PDE4 at compound concentration of 10.0 uM in the Eurofins-Panlabs enzyme assay (Eurofins_assay_154000); type: protein assay, Homo sapiens; design: substrate with concentration 1.01 uM [3 H]cAMP + cAMP, incubation time 20 min, incubation temperature 25 C
Homo sapiens = organism: Homo sapiens; experiment: as §2; type: protein assay; design: substrate with concentration 1.01 uM [3 H]cAMP + cAMP, incubation time 20 min, incubation temperature 25 C
[9] = target: Vasoactive intestinal polypeptide receptor 1 (Homo sapiens) (UniProt P32241); experiment: Inhibition of Vasoactive Intestinal Peptide VIP1 at 10 µM in the Eurofins-Panlabs radioligand binding assay (Eurofins_assay_287010); settings: Compound concentration 10.0 uM
Vasoactive intestinal polypeptide receptor 1 (Homo sapiens), sequence (P32241 whole entry): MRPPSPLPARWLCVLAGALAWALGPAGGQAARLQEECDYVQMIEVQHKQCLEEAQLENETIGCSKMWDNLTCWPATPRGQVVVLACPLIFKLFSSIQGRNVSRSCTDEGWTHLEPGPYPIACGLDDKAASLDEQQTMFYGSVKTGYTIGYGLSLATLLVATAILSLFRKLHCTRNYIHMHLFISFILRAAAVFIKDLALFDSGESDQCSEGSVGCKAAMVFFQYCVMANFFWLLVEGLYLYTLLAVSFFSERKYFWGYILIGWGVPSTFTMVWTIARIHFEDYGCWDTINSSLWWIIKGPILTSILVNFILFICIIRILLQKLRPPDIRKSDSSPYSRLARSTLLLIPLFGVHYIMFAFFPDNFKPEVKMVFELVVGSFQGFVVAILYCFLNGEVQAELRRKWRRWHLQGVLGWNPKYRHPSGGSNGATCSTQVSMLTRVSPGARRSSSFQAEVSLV

[10] = target: cGMP-dependent 3',5'-cyclic phosphodiesterase (Homo sapiens, UniProt O00408); experiment: Phosphodiesterase PDE2 Eurofins-Panlabs enzyme assay; design: substrate with concentration [3H] cAMP + cAMP, incubation time 20 min, incubation temperature 25 °C
cGMP-dependent 3',5'-cyclic phosphodiesterase, sequence (O00408 whole entry): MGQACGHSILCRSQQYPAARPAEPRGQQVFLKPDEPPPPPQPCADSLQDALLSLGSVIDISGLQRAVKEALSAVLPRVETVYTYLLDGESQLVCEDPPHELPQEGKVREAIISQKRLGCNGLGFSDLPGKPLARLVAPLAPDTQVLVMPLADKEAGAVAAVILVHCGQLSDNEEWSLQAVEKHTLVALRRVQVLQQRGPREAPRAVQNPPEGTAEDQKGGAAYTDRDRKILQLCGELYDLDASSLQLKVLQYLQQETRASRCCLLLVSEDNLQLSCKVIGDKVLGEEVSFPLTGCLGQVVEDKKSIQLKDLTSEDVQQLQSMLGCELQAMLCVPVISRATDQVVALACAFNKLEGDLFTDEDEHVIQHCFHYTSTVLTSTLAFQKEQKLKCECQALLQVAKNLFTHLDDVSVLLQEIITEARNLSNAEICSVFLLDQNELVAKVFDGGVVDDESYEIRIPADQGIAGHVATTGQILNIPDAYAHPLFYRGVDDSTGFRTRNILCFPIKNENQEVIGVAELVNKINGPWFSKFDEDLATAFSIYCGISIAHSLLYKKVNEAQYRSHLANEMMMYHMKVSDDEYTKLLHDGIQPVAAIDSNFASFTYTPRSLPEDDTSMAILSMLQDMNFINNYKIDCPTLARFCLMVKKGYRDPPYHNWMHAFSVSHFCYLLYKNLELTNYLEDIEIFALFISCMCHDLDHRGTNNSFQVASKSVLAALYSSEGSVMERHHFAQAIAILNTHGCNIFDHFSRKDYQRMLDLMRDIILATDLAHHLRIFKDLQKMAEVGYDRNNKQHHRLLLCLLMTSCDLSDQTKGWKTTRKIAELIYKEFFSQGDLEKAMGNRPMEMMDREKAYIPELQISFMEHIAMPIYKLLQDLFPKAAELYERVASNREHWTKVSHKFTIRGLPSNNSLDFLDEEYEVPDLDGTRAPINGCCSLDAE

Rattus norvegicus [11] = organism: Rattus norvegicus; experiment: Adrenergic α1, Non-selective Eurofins-Panlabs radioligand binding assay; type: protein assay; settings: Compound concentration 10.0 uM
[12] = target: Cannabinoid receptor 1 (Homo sapiens) (UniProt P21554); experiment: Cannabinoid CB1 Eurofins-Panlabs radioligand binding assay; settings: Compound concentration 10.0 uM
Cannabinoid receptor 1 (Homo sapiens), sequence (P21554 whole entry): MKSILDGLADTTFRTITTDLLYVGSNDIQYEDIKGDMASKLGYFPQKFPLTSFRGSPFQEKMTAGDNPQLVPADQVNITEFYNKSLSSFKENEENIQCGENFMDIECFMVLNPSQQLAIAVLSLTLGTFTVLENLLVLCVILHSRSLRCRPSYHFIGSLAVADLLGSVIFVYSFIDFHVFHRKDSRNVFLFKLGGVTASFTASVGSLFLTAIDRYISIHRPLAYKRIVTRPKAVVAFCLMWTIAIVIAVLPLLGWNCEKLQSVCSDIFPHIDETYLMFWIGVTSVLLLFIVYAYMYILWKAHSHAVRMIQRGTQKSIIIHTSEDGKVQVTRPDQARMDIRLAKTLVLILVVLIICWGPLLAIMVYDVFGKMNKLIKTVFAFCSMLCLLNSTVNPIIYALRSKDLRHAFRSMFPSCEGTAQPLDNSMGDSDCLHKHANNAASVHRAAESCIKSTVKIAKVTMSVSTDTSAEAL

[13] = target: T3, D(4) dopamine receptor (Homo sapiens) (UniProt P21917); experiment: Dopamine D4.4 Eurofins-Panlabs radioligand binding assay; design: ligand concentration 1.2 nM; settings: Compound concentration 10.0 uM
T3 sequence (whole entry): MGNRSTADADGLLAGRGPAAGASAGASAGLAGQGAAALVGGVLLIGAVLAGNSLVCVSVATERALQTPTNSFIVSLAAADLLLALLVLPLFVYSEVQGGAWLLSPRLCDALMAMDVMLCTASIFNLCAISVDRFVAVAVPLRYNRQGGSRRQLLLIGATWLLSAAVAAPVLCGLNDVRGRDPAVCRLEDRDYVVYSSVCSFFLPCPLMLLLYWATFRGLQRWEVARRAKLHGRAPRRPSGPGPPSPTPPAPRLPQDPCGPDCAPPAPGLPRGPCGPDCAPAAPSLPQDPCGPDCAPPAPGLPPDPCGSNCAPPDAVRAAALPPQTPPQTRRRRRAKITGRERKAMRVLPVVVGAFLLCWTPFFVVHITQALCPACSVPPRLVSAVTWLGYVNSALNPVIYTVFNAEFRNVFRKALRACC

[14] = target: Oxytocin receptor (Homo sapiens) (UniProt P30559); experiment: Oxytocin Eurofins-Panlabs radioligand binding assay; settings: Compound concentration 10.0 uM
Oxytocin receptor (Homo sapiens), sequence (P30559 whole entry): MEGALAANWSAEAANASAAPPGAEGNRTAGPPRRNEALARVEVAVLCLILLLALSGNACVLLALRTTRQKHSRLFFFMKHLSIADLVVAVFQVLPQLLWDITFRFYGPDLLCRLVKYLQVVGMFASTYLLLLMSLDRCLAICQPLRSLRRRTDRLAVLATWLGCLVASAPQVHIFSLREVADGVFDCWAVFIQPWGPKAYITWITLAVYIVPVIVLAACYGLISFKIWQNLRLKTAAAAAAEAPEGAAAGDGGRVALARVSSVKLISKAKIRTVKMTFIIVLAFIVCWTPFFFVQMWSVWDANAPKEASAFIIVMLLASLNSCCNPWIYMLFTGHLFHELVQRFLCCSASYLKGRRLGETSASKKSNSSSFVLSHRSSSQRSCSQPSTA

Rattus norvegicus [15] = organism: Rattus norvegicus; experiment: Serotonin (5-Hydroxytryptamine) 5-HT1, Non-Selective Eurofins-Panlabs radioligand binding assay; type: protein assay; settings: concentration not given here
D(1A) dopamine receptor = D(1A) dopamine receptor (Homo sapiens, UniProt P21728); settings: Compound concentration 10.0 uM
D(1A) dopamine receptor, sequence (P21728 whole entry): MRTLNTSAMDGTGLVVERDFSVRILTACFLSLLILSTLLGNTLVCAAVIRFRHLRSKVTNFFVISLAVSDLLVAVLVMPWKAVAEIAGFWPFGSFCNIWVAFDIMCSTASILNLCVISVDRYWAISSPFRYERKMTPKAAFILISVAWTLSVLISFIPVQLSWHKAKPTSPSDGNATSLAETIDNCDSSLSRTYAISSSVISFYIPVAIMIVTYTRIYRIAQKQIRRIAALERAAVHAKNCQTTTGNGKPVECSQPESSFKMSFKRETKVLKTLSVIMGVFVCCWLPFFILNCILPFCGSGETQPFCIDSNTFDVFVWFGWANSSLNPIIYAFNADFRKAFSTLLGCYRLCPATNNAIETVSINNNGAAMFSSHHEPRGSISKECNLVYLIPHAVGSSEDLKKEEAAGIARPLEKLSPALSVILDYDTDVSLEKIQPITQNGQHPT

[16] = target: Kappa-type opioid receptor (Homo sapiens, UniProt P41145)
Kappa-type opioid receptor, sequence (P41145 whole entry): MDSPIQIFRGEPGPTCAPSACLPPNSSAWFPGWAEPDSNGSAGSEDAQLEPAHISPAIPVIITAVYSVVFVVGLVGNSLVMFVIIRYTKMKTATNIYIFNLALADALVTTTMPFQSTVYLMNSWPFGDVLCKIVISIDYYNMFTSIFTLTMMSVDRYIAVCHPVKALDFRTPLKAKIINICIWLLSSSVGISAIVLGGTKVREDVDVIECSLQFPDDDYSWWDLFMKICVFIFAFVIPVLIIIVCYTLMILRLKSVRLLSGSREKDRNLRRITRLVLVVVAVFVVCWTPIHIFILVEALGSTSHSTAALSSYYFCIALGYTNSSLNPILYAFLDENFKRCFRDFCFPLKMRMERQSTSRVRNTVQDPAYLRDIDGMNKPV

[17] = Compound concentration 100.0 uM

SMILES: O=C(O)c1cc(-c2ccc(C3CCNCC3)cc2)c2ccc(-c3ccc(C(F)(F)F)cc3)cc2c1 [PPTN]
- inhibition [1]: -5%
- inhibition [2]: 12%
- inhibition [3]: -9%
- inhibition [4]: -1%
- inhibition at 60 min, 10 µM [5]: -6% (not active)
- inhibition ([6]; Compound concentration 0.01 uM): -3%
- inhibition ([6]; Compound concentration 0.1 uM): 0%
- inhibition ([6]; Compound concentration 1.0 uM): -1%
- inhibition ([6]; Compound concentration 10.0 uM): 70%
- IC50 [7]: 8.71 µM
- IC50 [8]: 100 µM
- inhibition (Homo sapiens; Compound concentration 0.1 uM): -6%
- inhibition (Homo sapiens; Compound concentration 1.0 uM): 0%
- inhibition (Homo sapiens; Compound concentration 10.0 uM): 24%
- inhibition (Homo sapiens; [17]): 49%
- inhibition [9]: 3%
- IC50 [10]: 86.9 µM
- inhibition ([10]; Compound concentration 1.0 uM): -3%
- inhibition ([10]; Compound concentration 10.0 uM): 4%
- inhibition [10, 17]: 55%
- inhibition (Rattus norvegicus [11]): -4%
- inhibition [12]: -6%
- inhibition [13]: -8%
- inhibition [14]: 0%
- inhibition (Rattus norvegicus [15]): 5%
- inhibition (D(1A) dopamine receptor): 22%
- inhibition ([16]; Compound concentration 0.1 uM): -1%
- inhibition ([16]; Compound concentration 1.0 uM): 1%
- inhibition ([16]; Compound concentration 10.0 uM): 63%
